Test results as given in US11319299B2, “Substituted carboxamides as inhibitors of WDR5 protein-protein binding” (PROPELLON THERAPEUTICS INC., priority 2016, dated 2022).
pKd: −log10 of the molar value.

These compounds were tested against WDR5 (Homo sapiens (Human), UniProt P61964) (assay: Surface Plasmon Resonance (SPR) assay, KD and residence time). Details: surface plasmon resonance (SPR); read-out: WDR5 binding affinity (KD).
Assay type: binding

**Q.** How did the pKd turn out when `C[C@@H]1CN(c2cc(F)c(-c3ncc(C(=O)N(C)CC4CC4)s3)cc2NC(=O)c2c[nH]c(=O)cc2C(F)(F)F)C[C@H](C)N1C` [Example 497, N-(cyclopropylmethyl)-2-[2-fluoro-5-[[6-oxo-4-(trifluoromethyl)-1H-pyridine-3-carbonyl]amino]-4-[(3R,5S)-3,4,5-trimethylpiperazin-1-yl]phenyl]-N-methyl-1,3-thiazole-5-carboxamide] was run?
**A.** 8.59

**Q.** With `C[C@@H]1CN(c2cc(F)c(-c3ncc(C(=O)NC4CCCCC4)s3)cc2NC(=O)c2c[nH]c(=O)cc2C(F)(F)F)C[C@H](C)N1C` [Example 498, N-cyclohexyl-2-[2-fluoro-5-[[6-oxo-4-(trifluoromethyl)-1H-pyridine-3-carbonyl]amino]-4-[(3R,5S)-3,4,5-trimethylpiperazin-1-yl]phenyl]-1,3-thiazole-5-carboxamide] as the compound, how does the pKd read?
**A.** 8.83

**Q.** How did the pKd turn out when `C[C@@H]1CN(c2cc(F)c(-c3ncc(C(=O)N(C)C4CCCCC4)s3)cc2NC(=O)c2c[nH]c(=O)cc2C(F)(F)F)C[C@H](C)N1C` [Example 499, N-cyclohexyl-2-[2-fluoro-5-[[6-oxo-4-(trifluoromethyl)-1H-pyridine-3-carbonyl]amino]-4-[(3R,5S)-3,4,5-trimethylpiperazin-1-yl]phenyl]-N-methyl-1,3-thiazole-5-carboxamide] was run?
**A.** 8.47

**Q.** How did the pKd turn out when `C[C@@H]1CN(c2cc(F)c(-c3ncc(C(=O)N4CCOCC4)s3)cc2NC(=O)c2c[nH]c(=O)cc2C(F)(F)F)C[C@H](C)N1C` [Example 500, N-[4-fluoro-5-[5-(morpholine-4-carbonyl)-1,3-thiazol-2-yl]-2-[(3R,5S)-3,4,5-trimethylpiperazin-1-yl]phenyl]-6-oxo-4-(trifluoromethyl)-1H-pyridine-3-carboxamide] was run?
**A.** 8.73

**Q.** `C[C@@H]1CN(c2cc(F)c(-c3ncc(C(=O)N4CCN(C)CC4)s3)cc2NC(=O)c2c[nH]c(=O)cc2C(F)(F)F)C[C@H](C)N1C` [Example 501, N-[4-fluoro-5-[5-(4-methylpiperazine-1-carbonyl)-1,3-thiazol-2-yl]-2-[(3R,5S)-3,4,5-trimethylpiperazin-1-yl]phenyl]-6-oxo-4-(trifluoromethyl)-1H-pyridine-3-carboxamide] was tested. Which pKd did it give?
**A.** 8.46

**Q.** With `C[C@@H]1CN(c2cc(F)c(-c3cnc(N4CCOCC4)nc3)cc2NC(=O)c2cc(N)c(F)cc2C(F)(F)F)C[C@H](C)N1C` [Example 502, 5-amino-4-fluoro-N-[4-fluoro-5-(2-morpholin-4-ylpyrimidin-5-yl)-2-[(3R,5S)-3,4,5-trimethylpiperazin-1-yl]phenyl]-2-(trifluoromethyl)benzamide] as the compound, how does the pKd read?
**A.** 8.94

**Q.** `C[C@@H]1CN(c2cc(F)c(C3=CCN(c4ccc(C5CC5)nn4)CC3)cc2NC(=O)c2c[nH]c(=O)cc2C(F)(F)F)C[C@H](C)N1C` [Example 503, N-[5-[1-(6-cyclopropylpyridazin-3-yl)-3,6-dihydro-2H-pyridin-4-yl]-4-fluoro-2-[(3R,5S)-3,4,5-trimethylpiperazin-1-yl]phenyl]-6-oxo-4-(trifluoromethyl)-1H-pyridine-3-carboxamide] was tested. Which pKd did it give?
**A.** 8.61

**Q.** `CCc1ccc(N2CC=C(c3cc(NC(=O)c4c[nH]c(=O)cc4C(F)(F)F)c(N4C[C@@H](C)N(C)[C@@H](C)C4)cc3F)CC2)nn1` [Example 504, N-[5-[1-(6-ethylpyridazin-3-yl)-3,6-dihydro-2H-pyridin-4-yl]-4-fluoro-2-[(3R,5S)-3,4,5-trimethylpiperazin-1-yl]phenyl]-6-oxo-4-(trifluoromethyl)-1H-pyridine-3-carboxamide] was tested. Which pKd did it give?
**A.** 8.61

**Q.** How did the pKd turn out when `COc1cc(C(F)(F)F)c(C(=O)Nc2cc(-c3cnc(N4CCOCC4)nc3)c(F)cc2N2C[C@@H](C)N(C)[C@@H](C)C2)cn1` [Example 506, N-[4-fluoro-5-(2-morpholin-4-ylpyrimidin-5-yl)-2-[(3R,5S)-3,4,5-trimethylpiperazin-1-yl]phenyl]-6-methoxy-4-(trifluoromethyl)pyridine-3-carboxamide] was run?
**A.** 6.45

**Q.** `C[C@@H]1CN(c2ccc(-c3cc(NC(=O)c4c[nH]c(=O)cc4C(F)F)c(N4CCN(C)[C@@H](C)C4)cc3F)cn2)CCO1` [Example 509, 4-(difluoromethyl)-N-[4-fluoro-2-[(3S)-3,4-dimethylpiperazin-1-yl]-5-[6-[(2R)-2-methylmorpholin-4-yl]pyridin-3-yl]phenyl]-6-oxo-1H-pyridine-3-carboxamide] was tested. Which pKd did it give?
**A.** 9.02

**Q.** How did the pKd turn out when `C[C@@H]1CN(c2ccc(-c3cc(NC(=O)c4c[nH]c(=O)cc4C(F)F)c(N4C[C@@H](C)N(C)[C@@H](C)C4)cc3F)cn2)C[C@H](C)O1` [Example 511, 4-(difluoromethyl)-N-[4-fluoro-5-[6-[(2R,6S)-2,6-dimethylmorpholin-4-yl]pyridin-3-yl]-2-[(3R,5S)-3,4,5-trimethylpiperazin-1-yl]phenyl]-6-oxo-1H-pyridine-3-carboxamide] was run?
**A.** 9.11

**Q.** How did the pKd turn out when `C[C@@H]1CN(c2ccc(-c3cc(NC(=O)c4c[nH]c(=O)cc4C(F)F)c(N4CCN(C)[C@@H](C)C4)cc3F)cn2)C[C@H](C)O1` [Example 514, 4-(difluoromethyl)-N-[4-fluoro-5-[6-[(2R,6S)-2,6-dimethylmorpholin-4-yl]pyridin-3-yl]-2-[(3S)-3,4-dimethylpiperazin-1-yl]phenyl]-6-oxo-1H-pyridine-3-carboxamide] was run?
**A.** 9.02

**Q.** With `C[C@@H]1CN(c2ccc(-c3cc(NC(=O)c4cn(C)c(=O)cc4C(F)F)c(N4CCN(C)[C@@H](C)C4)cc3F)cn2)C[C@H](C)O1` [Example 515, 4-(difluoromethyl)-N-[4-fluoro-5-[6-[(2R,6S)-2,6-dimethylmorpholin-4-yl]pyridin-3-yl]-2-[(3S)-3,4-dimethylpiperazin-1-yl]phenyl]-1-methyl-6-oxopyridine-3-carboxamide] as the compound, how does the pKd read?
**A.** 8.39

**Q.** `C[C@@H]1CN(c2ccc(-c3cc(NC(=O)c4cn(C)c(=O)cc4C(F)F)c(N4CCN(C)[C@@H](C)C4)cc3F)cn2)CCO1` [Example 516, 4-(difluoromethyl)-N-[4-fluoro-2-[(3S)-3,4-dimethylpiperazin-1-yl]-5-[6-[(2R)-2-methylmorpholin-4-yl]pyridin-3-yl]phenyl]-1-methyl-6-oxopyridine-3-carboxamide] was tested. Which pKd did it give?
**A.** 8.40

**Q.** `C[C@@H]1CN(c2cc(F)c(-c3csc(C(=O)NCC4CC4)n3)cc2NC(=O)c2cn(C)c(=O)cc2C(F)(F)F)C[C@H](C)N1C` [Example 523, N-(cyclopropylmethyl)-4-[2-fluoro-5-[[1-methyl-6-oxo-4-(trifluoromethyl)pyridine-3-carbonyl]amino]-4-[(3R,5S)-3,4,5-trimethylpiperazin-1-yl]phenyl]-1,3-thiazole-2-carboxamide] was tested. Which pKd did it give?
**A.** 8.34

**Q.** `C[C@@H]1CN(c2cc(F)c(-c3csc(C(=O)N(C)CC4CC4)n3)cc2NC(=O)c2cn(C)c(=O)cc2C(F)(F)F)C[C@H](C)N1C` [Example 524, N-(cyclopropylmethyl)-4-[2-fluoro-5-[[-methyl-6-oxo-4-(trifluoromethyl)pyridine-3-carbonyl]amino]-4-[(3R,5S)-3,4,5-trimethylpiperazin-1-yl]phenyl]-N-methyl-1,3-thiazole-2-carboxamide] was tested. Which pKd did it give?
**A.** 8.30

**Q.** With `C[C@@H]1CN(c2cc(F)c(-c3csc(C(=O)NC4CCCCC4)n3)cc2NC(=O)c2cn(C)c(=O)cc2C(F)(F)F)C[C@H](C)N1C` [Example 525, N-cyclohexyl-4-[2-fluoro-5-[[1-methyl-6-oxo-4-(trifluoromethyl)pyridine-3-carbonyl]amino]-4-[(3R,5S)-3,4,5-trimethylpiperazin-1-yl]phenyl]-1,3-thiazole-2-carboxamide] as the compound, how does the pKd read?
**A.** 8.27

**Q.** With `C[C@@H]1CN(c2cc(F)c(-c3csc(C(=O)N(C)C4CCCCC4)n3)cc2NC(=O)c2cn(C)c(=O)cc2C(F)(F)F)C[C@H](C)N1C` [Example 526, N-cyclohexyl-4-[2-fluoro-5-[[1-methyl-6-oxo-4-(trifluoromethyl)pyridine-3-carbonyl]amino]-4-[(3R,5S)-3,4,5-trimethylpiperazin-1-yl]phenyl]-N-methyl-1,3-thiazole-2-carboxamide] as the compound, how does the pKd read?
**A.** 8.31

**Q.** `C[C@@H]1CN(c2cc(F)c(-c3csc(C(=O)N4CCOCC4)n3)cc2NC(=O)c2cn(C)c(=O)cc2C(F)(F)F)C[C@H](C)N1C` [Example 527, N-[4-fluoro-5-[2-(morpholine-4-carbonyl)-1,3-thiazol-4-yl]-2-[(3R,5S)-3,4,5-trimethylpiperazin-1-yl]phenyl]-1-methyl-6-oxo-4-(trifluoromethyl)pyridine-3-carboxamide] was tested. Which pKd did it give?
**A.** 8.25

**Q.** `C[C@@H]1CN(c2cc(F)c(-c3csc(C(=O)N4CCN(C)CC4)n3)cc2NC(=O)c2cn(C)c(=O)cc2C(F)(F)F)C[C@H](C)N1C` [Example 528, N-[4-fluoro-5-[2-(4-methylpiperazine-1-carbonyl)-1,3-thiazol-4-yl]-2-[(3R,5S)-3,4,5-trimethylpiperazin-1-yl]phenyl]-1-methyl-6-oxo-4-(trifluoromethyl)pyridine-3-carboxamide] was tested. Which pKd did it give?
**A.** 8.39

**Q.** `C[C@@H]1CN(c2cc(F)c(-c3csc(C(=O)NCC4CC4)n3)cc2NC(=O)c2c[nH]c(=O)cc2C(F)(F)F)C[C@H](C)N1C` [Example 531, N-(cyclopropylmethyl)-4-[2-fluoro-5-[[6-oxo-4-(trifluoromethyl)-1H-pyridine-3-carbonyl]amino]-4-[(3R,5S)-3,4,5-trimethylpiperazin-1-yl]phenyl]-1,3-thiazole-2-carboxamide] was tested. Which pKd did it give?
**A.** 8.97

**Q.** With `C[C@@H]1CN(c2cc(F)c(-c3csc(C(=O)NC4CCCCC4)n3)cc2NC(=O)c2c[nH]c(=O)cc2C(F)(F)F)C[C@H](C)N1C` [Example 533, N-cyclohexyl-4-[2-fluoro-5-[[6-oxo-4-(trifluoromethyl)-1H-pyridine-3-carbonyl]amino]-4-[(3R,5S)-3,4,5-trimethylpiperazin-1-yl]phenyl]-1,3-thiazole-2-carboxamide] as the compound, how does the pKd read?
**A.** 8.70

**Q.** How did the pKd turn out when `C[C@@H]1CN(c2cc(F)c(-c3csc(C(=O)N(C)C4CCCCC4)n3)cc2NC(=O)c2c[nH]c(=O)cc2C(F)(F)F)C[C@H](C)N1C` [Example 534, N-cyclohexyl-4-[2-fluoro-5-[[6-oxo-4-(trifluoromethyl)-1H-pyridine-3-carbonyl]amino]-4-[(3R,5S)-3,4,5-trimethylpiperazin-1-yl]phenyl]-N-methyl-1,3-thiazole-2-carboxamide] was run?
**A.** 8.88
